Data on 1 molecule can be found in patent US20260248791A1, “METHODS FOR TREATING DERMATOMYOSITIS WITH BREPOCITINIB” (priority 2023, published 2026).

Series [1] can be described thus: Solubility across physiological pH range. The series is classed as physicochemical.
Series [2] deals with P-glycoprotein (P-gp; MDR1; ABCB1) (Homo sapiens, UniProt P08183). Briefly: P-glycoprotein substrate status.
Another series has as its system IP-10 (CXCL10). The series is described as follows: IP-10 reduction in clinical studies. The settings on record: dose dependent reductions in clinical studies. The series is classed as in vivo, human. From the text:
As part of the clinical development program for oral Brepocitinib, a number of Phase 1 and Phase 2 studies have been completed or have a report in preparation. […] The multiple autoimmune diseases for which there is observed clinical efficacy data for Brepocitinib have mechanistic pathway similarities to DM. For example, psoriasis is driven by IL-17, which is downstream of IL-12 and IL-23 signaling via TYK2 and/or JAK1, and alopecia areata is characterized by excessive activity of IFN-γ, a type II interferon which also signals via JAK1. Of note, dose dependent reductions in IP-10 (CXCL10), an IFN-γ inducible gene, have been observed in Brepocitinib clinical studies, separating from placebo at doses ≥10 mg QD. Importantly, in these phase 2 studies, clinical response with Brepocitinib treatment rapidly separates from placebo. For example, in the phase 2 study assessing Brepocitinib's efficacy in psoriatic arthritis, Brepocitinib 30 mg achieved a 52% ACR20 response rate after 4 weeks compared to a 19% response rate in placebo patients.

Another series deals with human PBMCs. Briefly: IL-12-induced IFNγ production. The series is classed as cell-based. From the text:
Pharmacology. Brepocitinib inhibits various TYK2- and JAK1-dependent functions in different cell types such as cytokine-induced phosphorylation of signal transducer and activator transcriptions (STATs) in human peripheral blood mononuclear cells (PBMCs) and whole blood; differentiation of T helper (Th) 1, Th17, and B cells, interleukin (IL)-12-induced IFNγ production in human PBMCs; and IFN-1 gene signature induced by immune complexes in human PBMCs.

In series [3] the test system is Human dermal microvascular endothelial cells (HMEC-1). The series is described as follows: IFN-I induced endothelial cell damage (vascular network). The series is classed as cell-based. The settings on record: Brepocitinib preincubation. How it is done: Timeline for Brepocitinib efficacy evaluation for IFN-I induced pathological changes characteristic of DM in vitro. As shown in the schematic image of FIG. 1, human skeletal muscle myoblasts (HSMM) were cultured and differentiated into myotubes then treated with vehicle control or IFN-I (recombinant Human IFN alpha A and Human IFN alpha D) to induce cellular damage. Myotubes were also preincubated for 1 hour with Brepocitinib (1 μM or 130 nM, the latter is equivalent to the average free plasma concentration after administration of 30 mg once-daily) prior to IFN-I treatment. Immunofluorescence staining followed by image analysis to determine myosin 4 surface area were conducted after 48 hours of IFN-I treatment. […] Under light microscopy, 9 hours after treatment, the number of nodes, master segment length, and total mesh area were analyzed.
Human skeletal muscle myoblasts (Lonza, CC-2580) were cultured in SkGM™-2 media (Lonza, CC-3245) and sub-cultured using ReagentPack™ Subculture Reagents (Lonza, CC-5034). […] The effect on total myotube surface area was evaluated via fluorescent image analysis. […] The effect of type I IFN exposure±Brepocitinib treatment on the number of nodes, master segment length, and total mesh area was evaluated by taking bright-field images every 16 hours.

The test system of another series is CYP3A4/5. The settings on record: human.
A further series in a line: Broad off-target panel. The conditions noted are these: functional assays, ligand binding, enzyme activity.
For series [4], the target named is organic cation transporter (OCT) 1 (Homo sapiens, UniProt O15245). The series is described as follows: In vitro transporter inhibition, OCT1.
Series [5] concerns the target multidrug and toxin extrusion (MATE) 1 (Homo sapiens, UniProt Q96FL8). Briefly: In vitro transporter inhibition, MATE1.
Series [6] relates to Human skeletal muscle myoblasts (HSMM) differentiated into myotubes. Briefly: IFN-I induced myotube damage (myosin 4 surface area). The series is classed as cell-based. The conditions noted are these: for mean myosin surface area: 48 hours IFN-I. How it is done:
Timeline for Brepocitinib efficacy evaluation for IFN-I induced pathological changes characteristic of DM in vitro. As shown in the schematic image of FIG. 1, human skeletal muscle myoblasts (HSMM) were cultured and differentiated into myotubes then treated with vehicle control or IFN-I (recombinant Human IFN alpha A and Human IFN alpha D) to induce cellular damage. Myotubes were also preincubated for 1 hour with Brepocitinib (1 μM or 130 nM, the latter is equivalent to the average free plasma concentration after administration of 30 mg once-daily) prior to IFN-I treatment. Immunofluorescence staining followed by image analysis to determine myosin 4 surface area were conducted after 48 hours of IFN-I treatment. Human dermal microvascular endothelial cells (HMEC-1) were cultured and, once vascular networks were established, cells were treated with IFN-I or vehicle control. Cells were also preincubated for 1 hour with Brepocitinib. Under light microscopy, 9 hours after treatment, the number of nodes, master segment length, and total mesh area were analyzed.
Human skeletal muscle myoblasts (Lonza, CC-2580) were cultured in SkGM™-2 media (Lonza, CC-3245) and sub-cultured using ReagentPack™ Subculture Reagents (Lonza, CC-5034). They were then differentiated into myotubes by culturing in differentiation medium [DMEM/F12+2% Horse serum (Thermofisher, 16050122)] for 3-5 days until most of the myoblast cells differentiated into multinucleated myotubes. The myotubes were then preincubated with vehicle or Brepocitinib prior to type I interferon (R&D, 11200-2) exposure at concentrations (FIG. 7). After 48 hours of treatment, cells were fixed and stained with Myosin 4 Monoclonal antibody (MF20; Thermofisher, 14-6503-82) and Hoechst for nuclei visualization. The effect on total myotube surface area was evaluated via fluorescent image analysis. […] The effect of type I IFN exposure±Brepocitinib treatment on the number of nodes, master segment length, and total mesh area was evaluated by taking bright-field images every 16 hours.

Another series has as its target P-gp (Homo sapiens, UniProt P08183). Briefly: In vitro transporter inhibition, P-gp.
Series [7] in a line: Dose-response across Phase 2 studies. The series is classed as in vivo, human. The conditions noted are these: normalized responder rate vs average daily dose across Phase 2 studies.

organic cation transporter (OCT) 1, sequence (O15245 whole entry): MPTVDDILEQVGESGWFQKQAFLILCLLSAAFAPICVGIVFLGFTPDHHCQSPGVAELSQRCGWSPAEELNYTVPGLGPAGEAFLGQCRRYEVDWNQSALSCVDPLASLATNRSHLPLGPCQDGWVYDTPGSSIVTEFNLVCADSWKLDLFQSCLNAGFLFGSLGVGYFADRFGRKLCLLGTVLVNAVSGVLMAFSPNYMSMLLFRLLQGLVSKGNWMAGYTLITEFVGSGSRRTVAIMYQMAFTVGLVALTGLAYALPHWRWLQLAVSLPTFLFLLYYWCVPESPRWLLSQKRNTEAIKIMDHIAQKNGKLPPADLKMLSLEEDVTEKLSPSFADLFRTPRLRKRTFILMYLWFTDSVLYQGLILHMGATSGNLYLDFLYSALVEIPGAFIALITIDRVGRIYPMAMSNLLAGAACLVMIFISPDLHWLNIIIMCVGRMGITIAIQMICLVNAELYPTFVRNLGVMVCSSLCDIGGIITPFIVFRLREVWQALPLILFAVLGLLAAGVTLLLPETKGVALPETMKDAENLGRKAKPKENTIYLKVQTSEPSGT
multidrug and toxin extrusion (MATE) 1, sequence (Q96FL8 whole entry): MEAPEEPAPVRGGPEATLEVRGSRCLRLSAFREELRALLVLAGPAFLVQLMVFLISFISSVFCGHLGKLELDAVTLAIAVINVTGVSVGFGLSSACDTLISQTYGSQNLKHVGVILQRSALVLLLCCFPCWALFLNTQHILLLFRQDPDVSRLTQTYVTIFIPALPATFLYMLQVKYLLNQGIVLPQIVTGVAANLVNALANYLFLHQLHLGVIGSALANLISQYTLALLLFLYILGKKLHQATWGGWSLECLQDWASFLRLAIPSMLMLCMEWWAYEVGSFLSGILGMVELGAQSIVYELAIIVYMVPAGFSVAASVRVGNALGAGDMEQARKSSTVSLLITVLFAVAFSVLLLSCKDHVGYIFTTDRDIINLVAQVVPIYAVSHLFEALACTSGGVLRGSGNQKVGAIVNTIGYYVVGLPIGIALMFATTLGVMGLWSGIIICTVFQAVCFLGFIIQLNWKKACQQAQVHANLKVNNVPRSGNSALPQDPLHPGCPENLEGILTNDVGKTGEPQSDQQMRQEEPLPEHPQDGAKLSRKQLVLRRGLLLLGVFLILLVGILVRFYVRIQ
P-gp, sequence (P08183 whole entry): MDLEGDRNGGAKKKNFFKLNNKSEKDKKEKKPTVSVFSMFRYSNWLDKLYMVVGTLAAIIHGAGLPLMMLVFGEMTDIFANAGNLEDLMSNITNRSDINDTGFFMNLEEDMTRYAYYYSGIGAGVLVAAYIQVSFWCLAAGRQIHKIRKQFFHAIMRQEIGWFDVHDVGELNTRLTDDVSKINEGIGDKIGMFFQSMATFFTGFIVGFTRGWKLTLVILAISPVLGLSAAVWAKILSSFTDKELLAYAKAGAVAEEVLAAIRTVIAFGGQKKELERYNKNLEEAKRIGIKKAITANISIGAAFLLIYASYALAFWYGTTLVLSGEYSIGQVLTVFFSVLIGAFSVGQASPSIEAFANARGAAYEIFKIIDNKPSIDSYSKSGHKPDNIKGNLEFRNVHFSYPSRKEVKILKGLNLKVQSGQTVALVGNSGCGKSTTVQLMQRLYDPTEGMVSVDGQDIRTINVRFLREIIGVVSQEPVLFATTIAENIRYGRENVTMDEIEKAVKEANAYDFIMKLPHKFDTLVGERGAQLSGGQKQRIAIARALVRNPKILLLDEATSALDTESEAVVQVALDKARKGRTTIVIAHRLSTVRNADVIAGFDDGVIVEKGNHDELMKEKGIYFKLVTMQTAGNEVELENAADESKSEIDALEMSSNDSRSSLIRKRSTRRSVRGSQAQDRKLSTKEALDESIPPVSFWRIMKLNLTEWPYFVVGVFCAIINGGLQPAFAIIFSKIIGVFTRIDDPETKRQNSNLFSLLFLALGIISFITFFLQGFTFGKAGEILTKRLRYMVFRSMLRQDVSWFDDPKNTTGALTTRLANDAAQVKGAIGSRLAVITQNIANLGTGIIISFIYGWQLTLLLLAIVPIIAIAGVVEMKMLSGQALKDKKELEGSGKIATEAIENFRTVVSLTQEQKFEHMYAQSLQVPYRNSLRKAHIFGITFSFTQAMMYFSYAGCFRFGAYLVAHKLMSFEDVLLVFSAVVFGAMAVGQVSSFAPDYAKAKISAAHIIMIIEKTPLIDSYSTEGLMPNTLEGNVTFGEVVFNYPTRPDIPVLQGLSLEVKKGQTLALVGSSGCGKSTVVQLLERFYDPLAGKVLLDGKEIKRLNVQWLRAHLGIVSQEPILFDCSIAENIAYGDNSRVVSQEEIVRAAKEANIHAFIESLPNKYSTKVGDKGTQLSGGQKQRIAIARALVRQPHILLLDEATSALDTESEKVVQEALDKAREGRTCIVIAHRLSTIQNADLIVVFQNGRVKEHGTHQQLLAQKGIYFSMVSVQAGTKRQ
P-glycoprotein (P-gp; MDR1; ABCB1), sequence (P08183 whole entry): as above

Turning to `Cn1cc(Nc2nccc(N3C[C@H]4CC[C@@H](C3)N4C(=O)[C@@H]3CC3(F)F)n2)cn1` [Brepocitinib, [(1S)-2,2-difluorocyclo-propyl][(1R,5S)-3-{2-[(1-methyl-1H-pyrazol-4-yl)amino]pyrimidin-4-yl}-3,8-diazabicyclo[3.2.1]oct-8-yl]methanone], the “Solubility in 250 mL of the media” value in series [1] was “fully soluble”. Also, in series [1] (across the physiological pH range), the Solubility entry is “highly soluble”. Besides, the P-gp substrate status result in [2] is recorded as “substrate”. Besides, the “doses at which IP-10 (CXCL10) reduction separates from placebo” value in the series with IP-10 (CXCL10) is given as not below 10 mg QD. Also, the “IL-12-induced IFNγ production” value with human PBMCs was “inhibits”. Besides, the “IFN-I induced damage in endothelial cells” value in [3] was “almost completely prevented”. The “in vitro fraction metabolized” value in the series on CYP3A4/5 is given as 0.77. Further, the “radiolabeled dose recovered as unchanged Brepocitinib in the urine” value (human, in vivo) was “Approximately 8%”. In addition, the “radiolabeled dose recovered as Brepocitinib metabolites in the urine” value (human, in vivo, po) is reported as “Approximately 80%”. For the setting “not told”, the Permeability entry is listed as “highly permeable”. Moreover, the off-target pharmacology potential result in the series “Broad off-target panel” is on record as “low potential for off-target pharmacology”. The “In vitro inhibition of OCT1” value in [4] was “inhibition”. Also, the “In vitro inhibition of MATE1” value in [5] is “inhibition”. Also, the entries for the “mean myosin surface area” value in series [6] (130 nM preincubation 1 hour) and in series [6] (1 μM preincubation 1 hour) were 94.1 % of the vehicle control and 100 % of the vehicle control, respectively. In addition, in series [6] (Brepocitinib preincubation, 130 nM and 1 μM), the “IFN-I induced damage in myotubes” value is recorded as “almost completely prevented”. Moreover, the “In vitro inhibition of P-gp” value at P-gp is given as “inhibition”. The “dose resulting in 50% maximal response” value in series [7] stood at 15 mg QD.
